Values joined by “and” are separate entries in the source; they are usually repeats but may differ in a detail not shown here. Equal entries are not always repeated.

A short description of the test: The internally quenched fluorogenic depsipeptide substrate Ac-DED(Edans)-EEAbuΨ[COO]ASK(Dabcyl)-NH2 and a synthetic peptide containing the hydrophobic core residues of the NS4A protein cofactor ([…]; NS4A peptide) were obtained from Anaspec, Inc. (San Jose, Calif.). Other chemicals and biochemicals were of reagent grade or better and were purchased from standard suppliers.Reactions were run at room temperature in buffer consisting of 50 mM HEPES, 40% glycerol, 0.05% Triton X-100, 10 mM DTT, and 10% DMSO. The final assay solutions contained 50 pM NS3 genotype 1 b protease or 200 pM genotype 3a protease, 20 μM NS4A peptide, and 4 μM substrate (genotype 1b) or 2 μM substrate (genotype 3a). Inhibitor concentrations varied from 100 nM to 5 pM in 3-fold dilutions, and no-inhibitor controls were included.Compound dilutions were made in DMSO at 20× final concentration. Reaction mixtures were prepared in 96-well assay plates. A solution of enzyme and NS4A peptide in assay buffer (25 μL volume with both reagents at 4× final concentration) was mixed with 45 μL assay buffer and 5 μL of either inhibitor or DMSO, and pre-incubated at room temperature for 1 hour. The reaction was started by addition of 25 μL substrate solution at 4× final concentration. […].

Turning to `C=CCCC[C@@H]1CCCC1(OC(=O)N[C@H](C(=O)N1C[C@H](Oc2nc3cc(OC)ccc3nc2Cl)[C@@H](CC)[C@H]1C(=O)OC(C)(C)C)C(C)(C)C)C(F)(F)F` (some centres not stated), the Ki was 590 pM and 520 pM. To `C=CCC[C@@H]1C[C@H]1OC(=O)N[C@H](C(=O)N1C[C@H](Oc2nc3cc(OC)ccc3nc2C(F)(F)C=C)[C@@H](C)[C@H]1C(=O)OC(C)(C)C)C(C)(C)C` belongs 50 pM and 190 pM.

For the origin of these results see ChEMBL document CHEMBL5727172, “Inhibitors of hepatitis C virus” (2019).
